According to US7351714B2, “7-imino derivatives of camptothecin having antitumor activity” (priority 2004, dated 2008):
pIC50: −log10 of the molar value.

How the values were obtained:
[1] = tested on: NCI H460; test: antiproliferative activity test (cytotoxic activity) on human tumour cells; type: cell-based; details: H-460
Protocol: Cytotoxic activity of the compounds of the present invention was assayed in cell systems of human tumour cells, using the antiproliferative activity test as a method of evaluation of the cytotoxic potential.
The cell line used is a lung non-small cell carcinoma that belongs to non-small cells hystotype named NCI H460.

[2] = tested on: MKN-28 human gastric carcinoma; test: antitumor activity per os in athymic nude mice bearing s.c. tumor xenograft; type: in vivo; details: q4dx4; for TVI % (Tumor volume inhibition % in treated over control tumors): 11-12 day after last treatment
Source text: A compound is considered active when TVI %≧50.

[3] = cited from earlier work

| Compound | pIC50 [1] | also measured |
| --- | --- | --- |
| CC[C@@]1(O)C(=O)OCc2c1cc1n(c2=O)Cc2c-1nc1ccccc1c2C=Nc1ccccc1 [ST1546, 7-phenyliminomethylcamptothecin] | 6.89 | – |
| CC[C@@]1(O)C(=O)OCc2c1cc1n(c2=O)Cc2c-1nc1ccccc1c2C=Nc1ccc([N+](=O)[O-])cc1 [ST1561, 7-(4-nitrophenyl)iminomethylcamptothecin] | 6.55 | – |
| CC[C@@]1(O)C(=O)OCc2c1cc1n(c2=O)Cc2c-1nc1ccccc1c2C=Nc1ccccc1SSc1ccccc1N [ST1737, 7-2-(2-aminophenyldithio)phenyliminomethylcamptothecin] | 7.77 | Tox (Dead/treated mice) ([2]; 4 mg/kg per os): 0/4; TVI % (Tumor volume inhibition % in treated over control tumors) ([2]; 4 mg/kg per os): 69%; Tox (Dead/treated mice) ([2]; 7 mg/kg per os): 0/4; TVI % (Tumor volume inhibition % in treated over control tumors) ([2]; 7 mg/kg per os): 56%; BWL % (Body weight loss % induced by drug treatment) ([2]; 12 mg/kg per os): 4%; Tox (Dead/treated mice) ([2]; 12 mg/kg per os): 0/4; TVI % (Tumor volume inhibition % in treated over control tumors) ([2]; 12 mg/kg per os): 68% |
| CC[C@@]1(O)C(=O)OCc2c1cc1n(c2=O)Cc2c-1nc1ccccc1c2C=Nc1ccc(SSc2ccc(N)cc2)cc1 [ST2034, 7-4-(4-aminophenyldithio)phenyliminomethylcamptothecin] | 6.41 | – |
| CC[C@@]1(O)C(=O)OCc2c1cc1n(c2=O)Cc2c-1nc1ccccc1c2C=Nc1ccc(Sc2ccc(N)cc2)cc1 [ST2069, 7-4-(4-aminophenylthio)phenyliminomethylcamptothecin] | 6.62 | – |
| CC[C@@]1(O)C(=O)OCc2c1cc1n(c2=O)Cc2c-1nc1ccccc1c2C=Nc1ccccc1SC [ST2138, 7-(2-methylthiophenyl)iminomethylcamptothecin] | 7.22 | – |
| CC[C@@]1(O)C(=O)OCc2c1cc1n(c2=O)Cc2c-1nc1ccccc1c2C=Nc1ccccc1C [ST2212, 7-(2-methylphenyl)iminomethylcamptothecin] | 7.00 | – |
| CC[C@@]1(O)C(=O)OCc2c1cc1n(c2=O)Cc2c-1nc1ccccc1c2C=Nc1ccccc1Cl [ST2228, 7-(2-chlorophenyl)iminomethylcamptothecin] | 7.15 | – |
| CC[C@@]1(O)C(=O)OCc2c1cc1n(c2=O)Cc2c-1nc1ccccc1c2C=Nc1ccccc1I [ST2316, 7-(2-iodophenyl)iminomethylcamptothecin] | 7.22 | – |
| CC[C@@]1(O)C(=O)OCc2c1cc1n(c2=O)Cc2c-1nc1ccccc1c2C=Nc1c(C)cccc1C [ST2317, 7-(2,6-dimethylphenyl)iminomethylcamptothecin] | 6.82 | – |
| CC[C@@]1(O)C(=O)OCc2c1cc1n(c2=O)Cc2c-1nc1ccccc1c2C=Nc1ccccc1OC [ST2343, 7-(2-methoxyphenyl)iminomethylcamptothecin] | 7.22 | – |
| CC[C@@]1(O)C(=O)OCc2c1cc1n(c2=O)Cc2c-1nc1ccccc1c2C=Nc1ccccc1C(C)(C)C [ST2388, 7-(2-t-butylphenyl)iminomethylcamptothecin] | 7.15 | – |
| CC[C@@]1(O)C(=O)OCc2c1cc1n(c2=O)Cc2c-1nc1ccccc1c2C=Nc1ccccc1O [ST2389, 7-(2-hydroxyphenyl)iminomethylcamptothecin] | 7.22 | – |
| CC[C@@]1(O)C(=O)OCc2c1cc1n(c2=O)Cc2c-1nc1ccccc1c2C=Nc1ccc(Cl)cc1 [ST2412, 7-(4-chlorophenyl)iminomethylcamptothecin] | 7.10 | – |
| CC[C@@]1(O)C(=O)OCc2c1cc1n(c2=O)Cc2c-1nc1ccccc1c2C=Nc1ccc(OC)cc1 [ST2477, 7-(4-methoxyphenyl)iminomethylcamptothecin] | 6.80 | – |
| CCC1(O)C(=O)OCc2c1cc1n(c2=O)Cc2c-1nc1ccccc1c2C=Nc1ccc(C)cc1 (stereo not shown) [ST2478, 7-(4-methylphenyl)iminomethylcamptothecin] | 6.74 | – |
| CCC1(O)C(=O)OCc2c1cc1n(c2=O)Cc2c-1nc1ccccc1c2C=Nc1ccc(O)cc1 (stereo not shown) [ST 2616, 7-(4-hydroxyphenyliminomethyl)-camptothecin] | 6.66 | – |
| CCC1(O)C(=O)OCc2c1cc1n(c2=O)Cc2c-1nc1ccccc1c2C=Nc1ccc(C(C)(C)C)cc1 (stereo not shown) [ST 2619, 7-(4-tert-butylphenyliminomethyl)-camptothecin] | 7.05 | – |
| CCC1(O)C(=O)OCc2c1cc1n(c2=O)Cc2c-1nc1ccccc1c2C=Nc1ccc(SC)cc1 (stereo not shown) [ST 2667, 7-(4-methylthiophenyliminomethyl)-camptothecin] | 7.13 | – |
| CC[C@@]1(O)C(=O)OCc2c1cc1n(c2=O)Cc2cc3c(CN(C)C)c(O)ccc3nc2-1 [Topotecan] | – | level in the cerebrospinal fluid with respect to plasma ([3]; 10 minutes after infusion): 30%; lactone form hydrolysed to open ring ([3]; 30 minutes after infusion): 50% |
